The results in this text go back to patent publication US11208387B2, “Macrocyclic broad spectrum antibiotics” (Genentech, Inc., priority 2019, dated 2021).

Assay [1] has as its system isolated liver mitochondria. In words: Mitochondrial oxygen consumption rate (OCR) assay. It is filed as biochemical, Sprague-Dawley rats. The note with it: isolated rat liver mitochondria, state 3 (S3) respiration, glutamate/malate; Table 3. In outline: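 Liver mitochondria from male Sprague-Dawley rats preincubated with compounds 1 h on ice (1% DMSO, pH 7.4 buffer), then given glutamate/malate with TTFA (plus ADP for state 3) and phosphorescent O2 probe. Oxygen consumption read 30 min at 30 °C. IC50 (50 μg protein, S3) or UC50 (100 μg, S2) derived from AUC.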

Assay [2] relates to Acinetobacter baumannii ATCC 17978. Briefly: Serum MIC, broth micro-dilution. Format: cell-based. The note with it: Acinetobacter baumannii, ATCC17978, 50% v/v mouse serum in Mueller Hinton II cation adjusted Broth, 35° C., 22 hours. The gist of the method: (§1)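 MIC read after 22 h at 35° C by CLSI broth micro-dilution, with medium containing 50% v/v mouse serum in cation-adjusted Mueller Hinton II broth. Ten 2-fold compound concentrations were tested, starting at 64, 4, 0.5 or 0.13 μg/mL.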

The test system of assay [3] is Escherichia coli strain ATCC 25922. Briefly: Serum MIC, broth micro-dilution. It is filed as cell-based. The note with it: Escherichia coli, ATCC25922; 50% v/v mouse serum in Mueller Hinton II cation adjusted Broth, 35° C., 22 hours; Table 4; read-out: E. coli 25922 Serum MIC. In outline: as §1
Assay [4] has as its system Klebsiella pneumoniae ATCC 700603. Briefly: Serum MIC, broth micro-dilution. Format: cell-based. The note with it: Klebsiella pneumoniae, ATCC700603; 50% v/v mouse serum in Mueller Hinton II cation adjusted Broth, 35° C., 22 hours; Table 4; read-out: K pneumoniae 700603 Serum MIC. The gist of the method: as §1
For assay [5], the system named is Pseudomonas aeruginosa PA01. In words: Serum MIC, broth micro-dilution. It is filed as cell-based. The note with it: Pseudomonas aeruginosa, PA01; 50% v/v mouse serum in Mueller Hinton II cation adjusted Broth, 35° C., 22 hours; Table 4; read-out: P. aeruginosa 01 Serum MIC. The gist of the method: as §1
The mark [6] stands for this setting: Table 4, read-out: A. baumanii 17978 Serum MIC.
The mark [7] stands for this setting: Table 5, read-out: Acinetobacter baumanii 17978 Serum MIC.

Values after ≈ are worked out from the molar mass of the structure shown. Like-named read-outs stand apart in the source and are kept apart here.

Take `Cc1nc(-c2ccc(C(C)(C)C)cc2F)nc(N)c1C(=O)N[C@@H](CNS(N)(=O)=O)C(=O)N(C)[C@@H]1C(=O)N[C@@H](C)C(=O)N[C@H](C(=O)O)Cc2ccc(OC[C@H](O)CN)c(c2)-c2cc1cc(OC[C@H](O)CN)c2O` [Example 62, (8S,11S,14S)-14-[[(2S)-2-[[4-amino-2-(4-tert-butyl-2-fluoro-phenyl)-6-methyl-pyrimidine-5-carbonyl]-amino]-3-(sulfamoyl-amino)propanoyl]-methyl-amino]-3,17-bis[(2R)-3-amino-2-hydroxy-propoxy]-18-hydroxy-11-methyl-10,13-dioxo-9,12-diazatricyclo-[13.3.1.12,6]icosa-1(18),2(20),3,5,15(19), 16-hexaene-8-carboxylic acid]: the IC50 in assay [1] is > 100 µM. Also, the minimal inhibitory concentration (MIC) in assay [2] (setting [6]) was found to be 16 µM (≈ 16.4 µg/mL); in assay [2] (setting [7]) it was 16 µM (≈ 16.4 µg/mL); in assay [3], 1 µM (≈ 1.03 µg/mL); in assay [4], 1 µM (≈ 1.03 µg/mL); in assay [5], 6 µM (≈ 6.16 µg/mL).
For `Cc1nc(-c2ccc(C(C)(C)C)cc2)nc(N)c1C(=O)N[C@@H](CNS(N)(=O)=O)C(=O)N(C)[C@@H]1C(=O)N[C@@H](C)C(=O)N[C@H](C(=O)O)Cc2ccc(OC[C@@H](O)CN)c(c2)-c2cc1cc(OC[C@@H](O)CN)c2O` [Example 64, (8S,11S,14S)-14-[[(2S)-2-[[4-amino-2-(4-tert-butylphenyl)-6-methyl-pyrimidine-5-carbonyl]amino]-3-(sulfamoylamino)-propanoyl]-methyl-amino]-3,17-bis[(2S)-3-amino-2-hydroxy-propoxy]-18-hydroxy-11-methyl-10,13-dioxo-9,12-diazatri-cyclo[13.3.1.12,6]icosa-1(18),2(20),3,5,15(19), 16-hexaene-8-carboxylic acid], in assay [1], the IC50 was > 100 µM. The MIC in assay [2] (setting [6]) amounted to 8 µM (≈ 8.06 µg/mL); in assay [2] (setting [7]), 8 µM (≈ 8.06 µg/mL); in assay [3], 0.5 µM (≈ 0.504 µg/mL); in assay [4] it was 0.5 µM (≈ 0.504 µg/mL); in assay [5], 4 µM (≈ 4.03 µg/mL).
On to `Cc1nc(-c2ccc3c(c2)CCC3(C)C)nc(N)c1C(=O)N[C@@H](CNS(N)(=O)=O)C(=O)N(C)[C@@H]1C(=O)N[C@@H](C)C(=O)N[C@H](C(=O)O)Cc2ccc(OC[C@H](O)CN)c(c2)-c2cc1cc(OC[C@H](O)CN)c2O` [Example 66, (8S,11S,14S)-14-[[(2S)-2-[[4-amino-2-(1,1-dimethylindan-5-yl)-6-methyl-pyrimidine-5-carbonyl]-amino]-3-(sulfamoyl-amino)propanoyl]-methyl-amino]-3,17-bis[(2R)-3-amino-2-hydroxy-propoxy]-18-hydroxy-11-methyl-10,13-dioxo-9,12-diazatricyclo-[13.3.1.12,6]icosa-1(18),2(20),3,5,15(19), 16-hexaene-8-carboxylic acid], for which, in assay [1], the half-inhibitory concentration (IC50) was 69 µM. Further, the MIC in assay [2] (setting [6]) turned out to be 12 µM (≈ 12.2 µg/mL); in assay [2] (setting [7]) it was 12 µM (≈ 12.2 µg/mL); in assay [3], 0.75 µM (≈ 0.765 µg/mL); in assay [4], 0.75 µM (≈ 0.765 µg/mL); in assay [5] it was 6 µM (≈ 6.12 µg/mL).
`C[C@@H]1NC(=O)[C@@H](N(C)C(=O)[C@H](CNS(N)(=O)=O)NC(=O)c2c(N)nc(-c3ccc(C(C)(C)C)cc3)nc2C(F)F)c2cc(OC[C@H](O)CN)c(O)c(c2)-c2cc(ccc2OC[C@H](O)CN)C[C@@H](C(=O)O)NC1=O` [Example 69, (8S,11S,14S)-14-[[(2S)-2-[[4-amino-2-(4-tert-butylphenyl)-6-(difluoromethyl)-pyrimidine-5-carbonyl]amino]-3-(sulfamoylamino)-propanoyl]-methyl-amino]-3,17-bis[(2R)-3-amino-2-hydroxy-propoxy]-18-hydroxy-11-methyl-10,13-dioxo-9,12-diazatri-cyclo[13.3.1.12,6]icosa-1(18),2(20),3,5,15(19), 16-hexaene-8-carboxylic acid] came in with an IC50 in assay [1] of 44 µM. The MIC in assay [2] (setting [6]) was 4 µM (≈ 4.18 µg/mL); in assay [2] (setting [7]), 4 µM (≈ 4.18 µg/mL); in assay [3], 0.25 µM (≈ 0.261 µg/mL); in assay [4] it was 0.38 µM (≈ 0.397 µg/mL); in assay [5], 6 µM (≈ 6.26 µg/mL).
`Cc1nc(-c2ccc3c(c2O)CCC3(C)C)nc(N)c1C(=O)N[C@@H](CNS(N)(=O)=O)C(=O)N(C)[C@@H]1C(=O)N[C@@H](C)C(=O)N[C@H](C(=O)O)Cc2ccc(OC[C@H](O)CN)c(c2)-c2cc1cc(OC[C@H](O)CN)c2O` [Example 70, (8S,11S,14S)-18-hydroxy-11-methyl-14-[methyl-[(2S)-2-[[4-amino-2-(4-hydroxy-1,1-dimethyl-indan-5-yl)-6-methyl-pyrimidine-5-carbonyl]-amino]-3-(sulfamoyl-amino)propanoyl]-amino]-10,13-dioxo-3,17-bis[(2R)-3-amino-2-hydroxy-propoxy]-9,12-diazatricyclo-[13.3.1.12,6]icosa-1(18),2(20),3,5,15(19), 16-hexaene-8-carboxylic acid] registered an IC50 in assay [1] of 48 µM. The MIC was 16 µM (≈ 16.6 µg/mL) in assay [2] (setting [6]); 16 µM (≈ 16.6 µg/mL) in assay [2] (setting [7]); 0.5 µM (≈ 0.518 µg/mL) in assay [3]; 1 µM (≈ 1.04 µg/mL) in assay [4]; 4 µM (≈ 4.14 µg/mL) in assay [5].
`Cc1nc(-c2ccc(C(C)(C)C)cc2)nc(CN)c1C(=O)N[C@@H](CNS(N)(=O)=O)C(=O)N(C)[C@@H]1C(=O)N[C@@H](C)C(=O)N[C@H](C(=O)O)Cc2ccc(OC[C@H](O)CN)c(c2)-c2cc1cc(OC[C@H](O)CN)c2O` [Example 72, (8S,11S,14S)-3,17-bis[(2R)-3-amino-2-hydroxy-propoxy]-14-[[(2S)-2-[[4-(amino-methyl)-2-(4-tert-butylphenyl)-6-methyl-pyrimidine-5-carbonyl]amino]-3-(sulfamoylamino)-propanoyl]-methyl-amino]-18-hydroxy-11-methyl-10,13-dioxo-9,12-diazatri-cyclo[13.3.1.12,6]icosa-1(18),2(20),3,5,15(19), 16-hexaene-8-carboxylic acid]: in assay [1], the IC50 is > 200 µM. For the same compound, the minimal inhibitory concentration (MIC) was determined as 14 µM (≈ 14.3 µg/mL) in assay [2] (setting [6]); 14 µM (≈ 14.3 µg/mL) in assay [2] (setting [7]); 0.5 µM (≈ 0.511 µg/mL) in assay [3]; 0.31 µM (≈ 0.317 µg/mL) in assay [4]; 8 µM (≈ 8.18 µg/mL) in assay [5].
